Experimental data as given in patent US11311533B2, “Opioid receptor antagonist conjugate and use thereof” (SHANGHAI HANMAI BIO-PHARMA CO., LTD., priority 2016, dated 2022).
Several values for one entry are separate records, joined by “and”; a condition that tells them apart may be missing. Equal values may be shown once. Where a name gives a salt, the structure may show the parent alone.

Assays:
mice [1] = assay: Anti-constipation study: antagonizing the antidiarrheal effect of loperamide hydrochloride (castor oil diarrhea); type: in vivo
Description: The anti-constipation study experiment was completed by using the test of antagonizing the antidiarrheal effect of loperamide hydrochloride. The specific experiment process was: the mice were divided into groups randomly, eight mice each group, wherein one group was administered with 0.5 mL of castor oil by gavage, one group was administered with 2 mg/kg loperamide hydrochloride and 0.5 mL of castor oil by gavage, and conjugate test groups were respectively administered with Na1021 (300 nmol/kg), Na1029 (300 nmol/kg), Na1033 (300 nmol/kg) and Na1045 (600 nmol/kg) by gavage first, and then with 2 mg/kg loperamide and 0.5 mL castor oil by gavage.
The mice were divided into groups randomly, eight mice each group, wherein one group was administered with 0.5 mL of castor oil by gavage, one group was administered with 2 mg/kg loperamide and 0.5 mL castor oil by gavage, other groups were respectively administered with different doses of conjugate Na1029 first, then with 2 mg/kg loperamide hydrochloride and 0.5 mL castor oil by gavage.

mice [2] = assay: Mouse hot plate analgesia experiment (antagonism of morphine analgesia, blood-brain barrier study); details: for Average Pain Threshold after Administration (s) Mean ± SD: 60 minutes after administration; for Passage through the blood-brain barrier (concluded from antagonism of the analgesic effect of morphine): mouse hot plate, conjugate subcutaneous after morphine by gavage; for Difference between the pain threshold before and after administration (significance): before vs 60 minutes after administration, Na1037 and Na1041: high-dose groups
Description: Six conjugates Na1021, Na1029, Na1045, Na1037, Na1041, and Na1049 were subjected to mouse hot plate analgesia experiments for four times, respectively. In each experiment, mice (JOINN Laboratories (Suzhou)) were randomly divided into four groups (eight per group): one blank control group, one morphine control group, and two other groups which were administered with morphine by gavage first, and then low dose and high dose of the conjugates were subcutaneously injected respectively. The mice were put on a hot plate (55±0.1) ° C. before administration, and the time was recorded immediately. The duration from the beginning on the hot plate to the first hind paw licking was recorded as the reaction time of heat-pain sensation (i.e., pain threshold, the unit is second (s)). The pain threshold was set as 100% analgesia if there was no hind paw licking in 60 seconds. It was recorded as 60 seconds when the time exceeded 60 seconds to prevent burn of foot. The mice were again put on a (55±0.1) ° C. hot plate 60 minutes after the administration of drug and the reaction time of heat-pain sensation was recorded. […] The value of the pain thresholds before and after administration was compared and the percentage of increase in pain threshold was calculated according to the following formula to determine the effect of drug on antagonizing morphine analgesia. Percentage of increase in pain threshold=[(average heat pain threshold after administration−average pain threshold before administration)/average pain threshold before administration]×100%

[3] = molecular target: OPRM1 (Mμ opioid receptor gene) receptor (Homo sapiens, UniProt P35372); assay: cell-based; details: for inhibition at 10 µM: OPRM1, read-out: Inhibition rate (%) of highest concentration (mean ± standard deviation) (N = 2)
Chain of OPRM1 (Mμ opioid receptor gene) receptor (P35372 whole entry): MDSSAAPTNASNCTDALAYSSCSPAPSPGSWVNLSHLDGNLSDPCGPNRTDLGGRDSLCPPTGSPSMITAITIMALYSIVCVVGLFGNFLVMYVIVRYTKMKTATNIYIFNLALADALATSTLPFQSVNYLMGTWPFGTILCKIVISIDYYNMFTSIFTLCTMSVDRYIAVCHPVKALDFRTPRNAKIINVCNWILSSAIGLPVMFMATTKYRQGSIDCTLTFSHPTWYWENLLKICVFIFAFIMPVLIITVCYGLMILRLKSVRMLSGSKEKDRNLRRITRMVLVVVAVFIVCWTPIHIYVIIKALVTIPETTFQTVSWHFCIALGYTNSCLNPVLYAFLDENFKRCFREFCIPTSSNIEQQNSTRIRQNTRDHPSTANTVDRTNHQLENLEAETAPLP
Description: Cell suspension was inoculated into a 384-well microplate at a density of 15,000 cells per well, and cultured in a 37° C./5% CO2 incubator for at least 18 hours before experiment.
Before the test, the conjugates to be tested was diluted with HBSS buffer (containing 20 mM HEPES) and prepared as 5× solution with a concentration five times of the test solution. […] The concentration of the corresponding control DMSO is 0.1%.
The protocol for preparing agonist detection: cells were inoculated into 384-well microplates, 20 μl of cell suspension per well (containing 15,000 cells); the plate was placed in 37° C./5% CO2 incubator to continue the culture; cells were taken out after 18 hours, and dye was added, 20 μl per well; the plate was incubated in 37° C./5% CO2 incubator for 1 hour and equilibrated at room temperature for 15 minutes; and 10 μl of 5× test solution of agonist was added to each well for RFU value detection.
The protocol for preparing inhibitor detection: cells were inoculated into 384-well microplates, 20 μl of cell suspension per well (containing 15,000 cells); the plate was placed in 37° C./5% CO2 incubator to continue the culture; cells were taken out after 18 hours; for the inhibitor detection, 20 μl of dye was added to the plate, and then 10 μl of prepared conjugate solution was added; the plate was incubated in 37° C./5% CO2 for 1 hour and equilibrate at room temperature for 15 minutes; 12.5 μl of 5× EC80 positive agonist was added for RFU value detection.
The 384-well microplate containing the conjugate solution (5× test concentration), cell plate and pipette tip box were placed in FLIPR (Molecule Devices), and the agonist detection program was run. The overall detection time of the instrument was 120 seconds. 10 μl of agonist was automatically added to the plate at the 21st second. […] (Molecule Devices), and the inhibitor detection program was run. The overall detection time of the instrument was 120 seconds. 12.5 μl of positive agonist was automatically added to the plate at the 21st second.

[4] = 4 μmol/kg subcutaneous + Morphine by gavage
[5] = 20 μmol/kg subcutaneous + Morphine by gavage

SMILES: CN(C)C(=O)C(CCN1CCC(O)(c2ccc(Cl)cc2)CC1)(c1ccccc1)c1ccccc1 [Loperamide Hydrochloride, loperamide hydrochloride, reference compound]
- Total Number of Diarrhea Times Six Hours after Administration (mice [1]; Table 10: 2 mg/kg loperamide hydrochloride + 0.5 mL castor oil by gavage, no conjugate): 10.88 ± 7.14
- Total Number of Diarrhea Times Six Hours after Administration (mice [1]; Table 11: 2 mg/kg loperamide + 0.5 mL castor oil by gavage, no conjugate): 5.75 ± 3.69

SMILES: CN1CC[C@]23c4c5ccc(O)c4O[C@H]2[C@@H](O)C=C[C@H]3[C@H]1C5 [Morphine, morphine, reference compound]
- Average Pain Threshold after Administration (s) Mean ± SD (mice [2]; morphine control group, cut-off 60 s): 53.25 ± 10.96 s and 52.00 ± 9.67 s and 38.5 ± 15.58 s and 39.00 ± 17.25 s
- Average Pain Threshold before Administration (s) Mean ± SD (mice [2]; morphine control group, hot plate 55 °C): 19.25 ± 5.57 s and 20.38 ± 3.93 s and 20.88 ± 4.91 s and 15.12 ± 6.38 s

SMILES: Oc1ccc2c3c1O[C@H]1[C@@H](OCCOCCOCCOCCO[C@H]4CC[C@@]5(O)[C@H]6Cc7ccc(O)c8c7[C@@]5(CCN6CC5CC5)[C@H]4O8)CC[C@@]4(O)[C@@H](C2)N(CC2CC2)CC[C@]314 [Nal021, PEG4-(6-α-naltrexol)2-ether]
- Average Pain Threshold before Administration (s) Mean ± SD (mice [2]; 4.36 μmol/kg + Morphine group): 20.63 ± 7.07 s
- Percentage of Increase in Pain Threshold (mice [2]; 4.36 μmol/kg + morphine): 172.66%
- Average Pain Threshold after Administration (s) Mean ± SD (mice [2]; 4.36 μmol/kg subcutaneous + Morphine by gavage): 56.25 ± 10.61 s
- Average Pain Threshold before Administration (s) Mean ± SD (mice [2]; 21.8 μmol/kg + Morphine group): 18.63 ± 4.60 s
- Percentage of Increase in Pain Threshold (mice [2]; 21.8 μmol/kg + morphine): 220.72%
- Average Pain Threshold after Administration (s) Mean ± SD (mice [2]; 21.8 μmol/kg subcutaneous + Morphine by gavage): 59.75 ± 0.71 s
- Passage through the blood-brain barrier (concluded from antagonism of the analgesic effect of morphine) (mice [2]): cannot pass through the blood-brain barrier
- IC50 [3]: 229 nM
- inhibition at 10 µM [3]: 100.3 ± 0.56%

SMILES: Oc1ccc2c3c1O[C@H]1[C@@H](OCCOCCOCCOCCOCCOCCO[C@H]4CC[C@@]5(O)[C@H]6Cc7ccc(O)c8c7[C@@]5(CCN6CC5CC5)[C@H]4O8)CC[C@@]4(O)[C@@H](C2)N(CC2CC2)CC[C@]314 [Nal025, PEG6-(6-α-naltrexol)2-ether]
- IC50 [3]: 185 nM
- inhibition at 10 µM [3]: 100.6 ± 0.48%

SMILES: Oc1ccc2c3c1O[C@H]1[C@H](OCCOCCOCCOCCOCCOCCO[C@@H]4CC[C@@]5(O)[C@H]6Cc7ccc(O)c8c7[C@@]5(CCN6CC5CC5)[C@H]4O8)CC[C@@]4(O)[C@@H](C2)N(CC2CC2)CC[C@]314 [Nal026, PEG6-(6-β-naltrexol)2-ether]
- IC50 [3]: 183 nM
- inhibition at 10 µM [3]: 100.5 ± 0.26%

SMILES: Oc1ccc2c3c1O[C@H]1[C@@H](OCCOCCOCCOCCOCCOCCOCCOCCOCCOCCO[C@H]4CC[C@@]5(O)[C@H]6Cc7ccc(O)c8c7[C@@]5(CCN6CC5CC5)[C@H]4O8)CC[C@@]4(O)[C@@H](C2)N(CC2CC2)CC[C@]314 [Nal033, PEG10-(6-α-naltrexol)2-ether]
- Total Number of Diarrhea Times Six Hours after Administration (mice [1]; Table 10: 300 nmol/kg by gavage + Loperamide Hydrochloride + Castor Oil): 15.25 ± 4.13
- IC50 [3]: 197 nM
- inhibition at 10 µM [3]: 99.1 ± 1%

SMILES: COCCOCCOCCOCCOCCOCCO[C@H]1CC[C@@]2(O)[C@H]3Cc4ccc(O)c5c4[C@@]2(CCN3CC2CC2)[C@H]1O5 [Nal037, mPEG6-(6-α-naltrexol)-ether]
- Average Pain Threshold before Administration (s) Mean ± SD (mice [2]; 4 μmol/kg + Morphine group): 19.38 ± 5.21 s
- Percentage of Increase in Pain Threshold (mice [2]; 4 μmol/kg + morphine): 62.54%
- Average Pain Threshold after Administration (s) Mean ± SD (mice [2]; [4]): 31.50 ± 11.83 s
- Average Pain Threshold before Administration (s) Mean ± SD (mice [2]; 20 μmol/kg + Morphine group): 20.5 ± 3.93 s
- Percentage of Increase in Pain Threshold (mice [2]; 20 μmol/kg + morphine): 1.85%
- Average Pain Threshold after Administration (s) Mean ± SD (mice [2]; [5]): 20.88 ± 5.87 s
- Difference between the pain threshold before and after administration (significance) (mice [2]): not significant
- Passage through the blood-brain barrier (concluded from antagonism of the analgesic effect of morphine) (mice [2]): can pass through the blood-brain barrier
- IC50 [3]: 225 nM
- inhibition at 10 µM [3]: 100.6 ± 0.34%

SMILES: COCCOCCOCCOCCOCCOCCOCCOCCO[C@H]1CC[C@@]2(O)[C@H]3Cc4ccc(O)c5c4[C@@]2(CCN3CC2CC2)[C@H]1O5 [Nal041, mPEG8-(6-α-naltrexol)-ether]
- Average Pain Threshold before Administration (s) Mean ± SD (mice [2]; 4 μmol/kg + Morphine group): 14.25 ± 1.75 s
- Percentage of Increase in Pain Threshold (mice [2]; 4 μmol/kg + morphine): 170.18%
- Average Pain Threshold after Administration (s) Mean ± SD (mice [2]; [4]): 38.5 ± 14.74 s
- Average Pain Threshold before Administration (s) Mean ± SD (mice [2]; 20 μmol/kg + Morphine group): 16.88 ± 6.79 s
- Percentage of Increase in Pain Threshold (mice [2]; 20 μmol/kg + morphine): 30.33%
- Average Pain Threshold after Administration (s) Mean ± SD (mice [2]; [5]): 22.00 ± 5.12 s
- Difference between the pain threshold before and after administration (significance) (mice [2]): not significant
- Passage through the blood-brain barrier (concluded from antagonism of the analgesic effect of morphine) (mice [2]): can pass through the blood-brain barrier
- IC50 [3]: 210 nM
- inhibition at 10 µM [3]: 95.8 ± 1.86%

SMILES: C=CCN1CC[C@]23c4c5ccc(O)c4O[C@H]2[C@@H](OCCOCCOCCOCCOCCOCCOCCOCCOC)CC[C@@]3(O)[C@H]1C5 [Nal049, mPEG8-(6-α-naloxol)-ether]
- Average Pain Threshold before Administration (s) Mean ± SD (mice [2]; 4 μmol/kg + Morphine group): 14.00 ± 7.09 s
- Percentage of Increase in Pain Threshold (mice [2]; 4 μmol/kg + morphine): 125.93%
- Average Pain Threshold after Administration (s) Mean ± SD (mice [2]; [4]): 31.63 ± 10.04 s
- Average Pain Threshold before Administration (s) Mean ± SD (mice [2]; 20 μmol/kg + Morphine group): 13.5 ± 5.07 s
- Percentage of Increase in Pain Threshold (mice [2]; 20 μmol/kg + morphine): 91.70%
- Average Pain Threshold after Administration (s) Mean ± SD (mice [2]; [5]): 25.88 ± 7.64 s
- Passage through the blood-brain barrier (concluded from antagonism of the analgesic effect of morphine) (mice [2]): cannot pass through the blood-brain barrier
- IC50 [3]: 1050 nM
- inhibition at 10 µM [3]: 94.3 ± 5.39%

SMILES: Oc1ccc2c3c1O[C@H]1[C@@H](OCCOCCOCCO[C@H]4CC[C@@]5(O)[C@H]6Cc7ccc(O)c8c7[C@@]5(CCN6CC5CC5)[C@H]4O8)CC[C@@]4(O)[C@@H](C2)N(CC2CC2)CC[C@]314 [Nal053, PEG3-(6-α-naltrexol)2-ether]
- IC50 [3]: 250 nM
- inhibition at 10 µM [3]: 101.8 ± 0.97%

SMILES: O=C1CC[C@@]2(O)[C@H]3Cc4ccc(O)c5c4[C@@]2(CCN3CC2CC2)[C@H]1O5 [Naltrexone, naltrexone, reference compound]
- Total Number of Diarrhea Times Six Hours after Administration (mice [1]; Table 11: 500 μg/kg + Loperamide Hydrochloride + Castor Oil): 14.00 ± 5.76
